Values quoted from earlier work, collected in the CATMoS acute toxicity set (Mansouri et al. 2021).
Several values for one entry are separate records, joined by “and”; a condition that tells them apart may be missing. Equal entries are not always repeated.

Assay: rat acute oral toxicity
Conditions: in vivo

Cc1ccc(C(=O)c2ccc(CC(=O)NNCC(=O)N3CCN(C)CC3)n2C)cc1
LD50: 978 mg/kg

COC(C)CC(CC(OC)OC)OC (stereo not drawn)
LD50: 4090 mg/kg

C[N+]1(C)CCN(CC(O)(c2ccccc2)C2CCCCC2)CC1 (stereo not drawn)
LD50: 958 mg/kg

O=[N+]([O-])c1cc(Cl)c(N=Nc2ccc(N3CCS(=O)(=O)CC3)cc2)c(Cl)c1
LD50: 3200 mg/kg

CCN(CC)c1ccccc1
LD50: 782 mg/kg

NC1CCN(c2cccc(Cl)n2)CC1
LD50: 190 mg/kg

CC(C)(c1ccc(O)cc1)c1ccc(O)cc1
LD50: 1000 mg/kg

Cc1cc(C(C)(C)C)cc(C)c1CC1=NCCN1
LD50: 230 mg/kg

CCC(=O)Nc1ccc2nc(C(F)(F)F)[nH]c2c1
LD50: 8.92 mg/kg

CC(C)COc1ccc2ccccc2c1
LD50: 5930 mg/kg

CC(C)(C)NC[C@H](O)COc1cccc2c1CCCC2=O
LD50: 700 mg/kg

FCCOC(Cl)C(Cl)(Cl)Cl (stereo not drawn)
LD50: 18 mg/kg

CCOP(=O)(Cc1ccc(-c2nc3ccccc3s2)cc1)OCC
LD50: 1560 mg/kg

S=C(Cl)Cl
LD50: 929 mg/kg

C=CCSP(=O)(NC(=O)CC)OC (stereo not drawn)
LD50: 125 mg/kg

CCCCCc1ccccc1O
LD50: 700 mg/kg

COC(=O)c1c(C(F)F)nc(C(F)(F)F)c(C(=O)OC)c1CC(C)C
LD50: 1420 mg/kg

CC(NCCNC(C)c1ccccc1)c1ccccc1 (stereo not drawn)
LD50: 1290 mg/kg

CCC(CC)COCCOCCCN1C(=O)C2C3C=CC(C3)C2C1=O (stereo not drawn)
LD50: 9500 mg/kg

Fc1cc(Cl)c2nc(C(F)(F)F)[nH]c2c1
LD50: 1.98 mg/kg

Nc1ccc(C(F)(F)F)cc1
LD50: 128 mg/kg

OCCNCCOc1ccc(C(=C(c2ccccc2)C(F)(F)F)c2ccccc2)cc1
LD50: 1400 mg/kg

O=C(Cc1ccc(-c2ccccc2)cc1)Nc1ccccn1
LD50: 1860 mg/kg

O=C(O)CC1(CO)CCCCC1
LD50: 20 mg/kg

CC[C@@H](CO)NC(=O)[C@@H]1C=C2c3cccc4[nH]cc(c34)C[C@H]2N(C)C1
LD50: 93 mg/kg

CC(C)c1ccc(C#N)cc1
LD50: 3900 mg/kg

COc1ccc2c(=O)c(C)c(C)oc2c1CN(C)C
LD50: 7.8 mg/kg

CCOC(=O)C(Br)C#N (stereo not drawn)
LD50: 420 mg/kg

CCOC(=O)C=CN(C)C
LD50: 4500 mg/kg

Cc1cc2[nH]c(C(F)(F)F)nc2c([N+](=O)[O-])c1C
LD50: 67 mg/kg

c1ccc2sc(SNC3CCCCC3)nc2c1
LD50: 5300 mg/kg

CS(=O)(=O)c1ccc2c(c1)N(CCCN1CCC(C(N)=O)CC1)c1ccccc1S2
LD50: 976 mg/kg

COC(=O)Nc1cccc(OC(=O)Nc2cccc(C)c2)c1
LD50: 4000 mg/kg

CCNC(=O)OCCSCSP(=S)(OC)OC(C)C (stereo not drawn)
LD50: 8.5 mg/kg

CC1CC(Cl)CCC1C(=O)OC(C)(C)C (stereo not drawn)
LD50: 4560 mg/kg

CC(C)c1noc2nc(C(C)(C)C)ncc12
LD50: 15400 mg/kg

O=c1[nH]c(=O)n([C@H]2C[C@H](O)[C@@H](CO)O2)cc1Br
LD50: 8400 mg/kg

C1CC2OC2CC1C1CO1 (stereo not drawn)
LD50: 2830 mg/kg

COc1ccc2c(c1)OC(C)(C)[C@H](c1ccccc1)[C@H]2c1ccc(OCCN)cc1
LD50: 500 mg/kg

CC1N=C(N)CC1c1ccccc1 (stereo not drawn)
LD50: 420 mg/kg

O=C(O)Cc1cc(I)c(Oc2cc(I)c(O)c(I)c2)c(I)c1
LD50: 0.825 mg/kg

NCC(O)CO (stereo not drawn)
LD50: 7500 mg/kg

O=NN1CCNCC1
LD50: 2260 mg/kg

COP(=O)(OC)OC(=C(Cl)Br)c1ccc(Cl)cc1Cl
LD50: 107 mg/kg

C=CCCC(=O)O
LD50: 470 mg/kg

CC(=O)SCCCCCCSC(C)=O
LD50: 504 mg/kg

CC[C@H](OC(C)=O)C(C[C@H](C)N(C)C)(c1ccccc1)c1ccccc1
LD50: 29 mg/kg

O=C(Nc1ccc([N+](=O)[O-])cc1)OCc1cccnc1
LD50: 14 mg/kg

O=C(O)c1ccc(C(=O)O)c2c(C(=O)O)ccc(C(=O)O)c12
LD50: 7500 mg/kg

CCCCCC(C)=O
LD50: 1670 mg/kg

COc1cc2c(cc1OC)[C@@]13CCN4CC5=CCO[C@H]6CC(=O)N2[C@H]1[C@H]6[C@H]5C[C@H]43
LD50: 1 mg/kg

COCNC(=O)CSP(=S)(OC)OC
LD50: 600 mg/kg

COc1cc(C(=O)N2CCOCC2)cc(OC)c1OC
LD50: 1800 mg/kg

CCOP(=O)(N=C1SCCS1)OCC
LD50: 8.9 mg/kg

COC(CN1CCN(CC(O)C(OC)c2ccccc2)CC1)c1ccccc1 (stereo not drawn)
LD50: 435 mg/kg

CCOC(=O)CCC(=O)CC1(O)C2(Cl)C3(Cl)C4(Cl)C(Cl)(Cl)C5(Cl)C3(Cl)C1(Cl)C5(Cl)C42Cl (stereo not drawn)
LD50: 240 mg/kg

ClC=C(Cl)CCl
LD50: 616 mg/kg

O=P(O)(O)CN(CC(O)CN(CP(=O)(O)O)CP(=O)(O)O)CP(=O)(O)O
LD50: 4300 mg/kg

N#CCc1ccc(Cl)cc1
LD50: 50 mg/kg

OCc1ccccc1
LD50: 1230 mg/kg

CCOP(=O)(OCC)Oc1ccc([N+](=O)[O-])c(Cl)c1
LD50: 5 mg/kg

CNC(=O)Oc1ccc(O)c2ccccc12
LD50: 1190 mg/kg

NCCCNCCSP(=O)(O)O
LD50: 826 mg/kg

CCCCCCCCCCCCCC[N+](C)(C)Cc1ccccc1
LD50: 426 mg/kg

O=C1Nc2ccc(Cl)cc2C(c2ccccc2Cl)=NC1O (stereo not drawn)
LD50: 4500 mg/kg

CCOc1ccccc1N1CCN(C(=O)CCC2CCCCC2)CC1
LD50: 2420 mg/kg

CSCC(=NO)C(C)(C)C
LD50: 813 mg/kg

C#CCOc1ccccc1OC(=O)NC
LD50: 60 mg/kg

C=CC(O)CC#N (stereo not drawn)
LD50: 200 mg/kg

O=C(O)c1ccccc1-c1ccccc1CO
LD50: 6500 mg/kg

CCN(CC)CCOC(=O)C(O)(c1ccccc1)c1ccccc1
LD50: 184 mg/kg

Cc1ncc(CS)c(CO)c1O
LD50: 3000 mg/kg

c1ccc(Cc2ccccc2)cc1
LD50: 2250 mg/kg

CCN(CC)CC#CC(C)(C)OC(=O)C(O)(c1ccccc1)C1CCCCC1 (stereo not drawn)
LD50: 735 mg/kg

CCOc1ccc([N+](=O)[O-])cc1CNCCCl
LD50: 25 mg/kg

CCCNC(=O)C(C)Nc1ccc(OCC)cc1 (stereo not drawn)
LD50: 3000 mg/kg

CC(=O)OC(C)=O
LD50: 1780 mg/kg

NS(=O)(=O)c1ccc(Cl)c(S(N)(=O)=O)c1
LD50: 340 mg/kg

O=CC(Cl)(Cl)Cl
LD50: 480 mg/kg

CC1CN1P(=O)(N1CC1C)N1CC1C (stereo not drawn)
LD50: 136 mg/kg

Cc1c2ccccc2c(C)c2c1ccc1ccccc12
LD50: 327 mg/kg

CCO[Si](CCCC#N)(OCC)OCC
LD50: 4920 mg/kg

CC(N)C(OCCN(C(C)C)C(C)C)C(=O)c1ccccc1 (stereo not drawn)
LD50: 238 mg/kg

CC(C)=CCC(CCN1CCOCC1)(C(N)=O)c1cccc2ccccc12 (stereo not drawn)
LD50: 177 mg/kg

COc1ccc2c(c1)c(CC(=O)OC(C)c1ccccc1)c(C)n2C(=O)c1ccc(Cl)cc1 (stereo not drawn)
LD50: 425 mg/kg

CO[Si](C)(CCCNCCN)OC
LD50: 200 mg/kg

ClC(Cl)C(Cl)C(Cl)C(Cl)Cl (stereo not drawn)
LD50: 400 mg/kg

OCC(Cl)C(Cl)CO (stereo not drawn)
LD50: 2830 mg/kg

CC=CC#N
LD50: 167 mg/kg and 501 mg/kg

CC(C)=CCC(CCN1CCCCC1)(C(N)=O)c1cccc2ccccc12 (stereo not drawn)
LD50: 57 mg/kg

CCCCc1c(OC(=O)c2cc(OC)c(OC)c(OC)c2)n(-c2ccccc2)n(-c2ccccc2)c1=O
LD50: 3000 mg/kg

CN(C(=O)C[N+](C)(C)C)C(=O)Oc1cccc2c1OC(C)(C)C2
LD50: 33.6 mg/kg

COC(C)OC
LD50: 6500 mg/kg

CCCC(C)CCOC(=O)c1ccccc1C(=O)OCCC(C)CCC (stereo not drawn)
LD50: 35500 mg/kg

Cc1cc(O)cc(C)c1Cl
LD50: 3830 mg/kg

C=CCI
LD50: 10 mg/kg

CC=Cc1ccc(OCC)c(O)c1
LD50: 2400 mg/kg

CNC(C)Cc1ccccc1 (racemic)
LD50: 29 mg/kg

CCCCCCCCCCCCNC(N)=S
LD50: 1000 mg/kg

CNC(=O)Oc1ccc(SC)c(C)c1
LD50: 50 mg/kg

C1C[SiH2]C1
LD50: 1540 mg/kg

CCOC(C1=NCC(C)(C)CN1)c1ccccc1Cl (stereo not drawn)
LD50: 310 mg/kg

COP(=S)(OC)Oc1cc(C)ccc1C(C)C
LD50: 750 mg/kg

CC(=O)OCCC1CCCCC1
LD50: 3200 mg/kg

CCCCOC(C[n+]1ccccc1)c1ccccc1 (stereo not drawn)
LD50: 250 mg/kg

COc1ccc(NC(=O)N(C)C)cc1Cl
LD50: 1600 mg/kg

Cc1cccc(C(=O)O)c1O
LD50: 445 mg/kg

COP(=S)(OC)Oc1cc(C)c(SC)c(C)c1
LD50: 1000 mg/kg
